Read-outs that look alike come from different tables or passages of the source.
Legend:
Hsp90 (SKBr3 lysate) = experiment: Hsp90 binding assay (fluorescence polarization, cy3B-GM displacement), human cancer cell lysate; conditions: lysate not given
Description: (§1) For the binding studies, fluorescence polarization (FP) assays w-re performed similarly as was previously reported [Du et al. (2007) “High-throughput screening fluorescence polarization assay for tumor-specific Hsp90” J. Biomol. Screen 12:915-924]. Briefly, FP measurements were performed on an Analyst GT instrument (Molecular Devices, Sunnyvale, Calif.). Measurements were taken in black 96-well microtiter plates (Corning #3650) where both the excitation and the emission occurred from the top of the well. A stock of 10 μM cy3B-GM was prepared in DMSO and diluted with HFB buffer (20 mM Hepes (K), pH 7.3, 50 mM KCl, 2 mM DTT, 5 mM MgCl2, 20 mM Na2MoO4, and 0.01% NP40 with 0.1 mg/mL BGG). The test compounds were dissolved in DMSO and added at several concentrations to the HFB assay buffer containing both 6 nM cy3B-GM and transgenic mouse brain lysate (6 μg JNPL3 lysate) or human cancer cell lysate (3 μg SKBr3 lysate) in a final volume of 100 μL. Drugs were added to triplicate wells. Free cy3B-GM (6 nM cy3B-GM), bound cy3B-GM (6 nM cy3B-GM+lysate, as indicated above) and buffer only containing wells (background) were included as controls in each plate. Plates were incubated on a shake at 4° C., and polarization values measured at 24 h. Percentage inhibition was calculated as follows: (% Control)=100−((mPc−mPf)/(mPb−mPf))×100, where mPc is the recorded mP from compound wells, mPf is the average recorded mP from cy3B-GM-only wells, and mPb is the average recorded mP from wells containing both cy3B-GM and lysate, and plotted against values of competitor concentrations. The inhibitor concentration at which 50% of bound cy3B-GM was displaced was obtained by fitting the data using a nonlinear regression analysis as implemented in Prism 4.0 (GraphPad Software).

Hsp90 = experiment: as above; conditions: fluorescence polarization, cy3B-GM displacement; the table does not say which lysate (SKBr3 or JNPL3)
Description: as §1

hERG = target: T1, hERG (Homo sapiens, UniProt Q12809); experiment: hERG fluorescence polarization assay (Predictor hERG kit); assay type: binding
T1 construct: purchased Invitrogen PV5365
T1 sequence (Q12809 whole entry): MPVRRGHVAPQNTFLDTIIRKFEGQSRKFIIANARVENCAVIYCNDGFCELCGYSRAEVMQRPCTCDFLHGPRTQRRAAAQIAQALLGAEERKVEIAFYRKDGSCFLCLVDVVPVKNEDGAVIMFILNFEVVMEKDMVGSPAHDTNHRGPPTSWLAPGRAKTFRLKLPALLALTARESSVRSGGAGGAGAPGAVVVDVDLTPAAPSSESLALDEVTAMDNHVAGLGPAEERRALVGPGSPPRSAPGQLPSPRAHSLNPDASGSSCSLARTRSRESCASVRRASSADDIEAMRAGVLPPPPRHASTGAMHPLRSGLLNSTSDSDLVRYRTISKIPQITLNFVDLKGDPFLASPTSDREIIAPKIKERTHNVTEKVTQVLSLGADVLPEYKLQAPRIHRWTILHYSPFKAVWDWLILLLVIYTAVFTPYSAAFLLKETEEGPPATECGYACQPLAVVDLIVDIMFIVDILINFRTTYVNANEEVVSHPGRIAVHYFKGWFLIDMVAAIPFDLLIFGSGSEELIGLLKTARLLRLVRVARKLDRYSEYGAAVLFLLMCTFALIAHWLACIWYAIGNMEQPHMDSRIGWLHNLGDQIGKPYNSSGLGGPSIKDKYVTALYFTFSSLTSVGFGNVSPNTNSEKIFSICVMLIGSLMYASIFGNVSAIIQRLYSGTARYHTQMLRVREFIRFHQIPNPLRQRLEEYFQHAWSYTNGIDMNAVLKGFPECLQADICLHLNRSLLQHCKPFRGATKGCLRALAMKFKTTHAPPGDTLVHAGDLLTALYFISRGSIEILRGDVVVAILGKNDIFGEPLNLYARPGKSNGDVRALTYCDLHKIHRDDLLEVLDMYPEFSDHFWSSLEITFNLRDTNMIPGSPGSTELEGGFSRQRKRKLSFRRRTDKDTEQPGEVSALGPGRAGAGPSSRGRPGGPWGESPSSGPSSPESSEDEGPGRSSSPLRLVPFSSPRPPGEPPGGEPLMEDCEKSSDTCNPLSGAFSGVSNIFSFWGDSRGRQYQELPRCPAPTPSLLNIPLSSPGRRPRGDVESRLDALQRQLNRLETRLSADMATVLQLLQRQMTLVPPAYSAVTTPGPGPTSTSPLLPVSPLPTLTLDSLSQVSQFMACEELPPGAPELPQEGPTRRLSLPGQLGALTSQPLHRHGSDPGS
Description: hERG Fluorescence Polarization Assay:
Following the manufacturer's protocol, the hERG assay was performed using Predictor hERG Fluorescence Polarization Assay kit (catalog no. PV5365) from Invitrogen. Briefly, FP measurements were performed on an Analyst GT instrument (Molecular Devices, Sunnyvale, Calif.). Measurements were taken in black 384-well plates (Corning #3677), where both the excitation and the emission occurred from the top of the well. The test compounds were dissolved in DMSO and added at several concentrations to the Predictor hERG FP assay buffer containing 4 nM Predictor hERG tracer red and 10 μL of Predictor hERG membrane in a final volume of 20 μL. Drugs were added to triplicate wells. E-4031 as positive control was included in each plate. Plates were then kept on a shaker at room temperature and polarization values were measured after 4 hrs. The inhibition concentration at which 50% of tracer red gets displaced was obtained by fitting the data using a nonlinear regression analysis as implemented in Prism 5.0 (GraphPad Software).

[1] = Predictor hERG fluorescence polarization, displacement of tracer red, read after 4 hrs, read-out: hERG assay

Row | Structure (SMILES) | IC50 (Hsp90) [nM] | Hsp90 binding affinity (in words, referring to Table 12) (Hsp90 (SKBr3 lysate)) | IC50 (hERG; [1]) [nM] | IC50 (hERG; concentration displacing 50% of Predictor hERG tracer red, read-out: hERG assay result) [nM]
1 | CC(C)S(=O)(=O)NCCCn1c(Sc2cc3c(cc2I)OCO3)nc2c(N)ncnc21 [Compound 1A-22, Propane-2-sulfonic acid {3-[6-amino-8-(6-iodo-benzo[1,3]dioxol-5-ylsulfanyl)-purin-9-yl]-propyl}-amide] | 47 | high level of binding affinity | > 100000 | 
2 | CC(C)(O)C(=O)NCCCn1c(Sc2cc3c(cc2I)OCO3)nc2c(N)ncnc21 [Compound 1A-48, N-(3-(6-Amino-8-((6-iodobenzo[d][1,3]dioxol-5-yl)thio)-9H-purin-9-yl)propyl)-2-hydroxy-2-methylpropanamide] | 22.1 |  | 12000 | 
3 | C#Cc1cc2c(cc1Sc1nc3c(N)ncnc3n1CCCNS(=O)(=O)C1CC1)OCO2 [Compound 1B-28, Cyclopropanesulfonic acid {3-[6-amino-8-(6-ethynyl-benzo[1,3]dioxol-5-ylsulfanyl)-purin-9-yl]-propyl}-amide] | 53 | high level of binding affinity | > 100000 | 
4 | C#Cc1cc2c(cc1Sc1nc3c(N)ncnc3n1CCCNC(=O)C(C)(C)C)OCO2 [Compound 1B-43, N-{3-[6-Amino-8-(6-ethynyl-benzo[1,3]dioxol-5-ylsulfanyl)-purin-9-yl]-propyl}-2,2-dimethyl-propionamide] | 28 | high level of binding affinity | > 100000 | 
5 | C#Cc1cc2c(cc1Sc1nc3c(N)ncnc3n1CCCNC(=O)C1CC1)OCO2 [Compound 1B-45, Cyclopropanecarboxylic acid {3-(6-amino-8-(6-ethynyl-benzo[1,3]dioxol-5-ylsulfanyl)-purin-9-yl]-propyl}-amide] | 37 | high level of binding affinity | > 100000 | 
6 | CN(C)c1cc2c(cc1Sc1nc3c(N)ncnc3n1CCCNS(=O)(=O)C1CC1)OCO2 [Compound 1G-28, N-(3-(6-amino-8-((6-(dimethylamino)benzo[d] [1,3]dioxol-5-yl)thio)-9H-purin-9-yl)propyl)cyclopropane-sulfonamide] | 22 | high level of binding affinity |  | 
7 | CC(C)(C)S(=O)(=O)NCCn1c(Sc2cc3c(cc2I)CCO3)nc2c(N)ncnc21 [Compound 2A-11, 2-Methyl-propane-2-sulfonic acid {2-[6-amino-8-(5-iodo-2,3-dihydro-benzofuran-6-ylsulfanyl)-purin-9-yl]-ethyl}-amide] | 51 | high level of binding affinity |  | 
8 | CC(C)(C)[S+]([O-])NCCn1c(Sc2cc3c(cc2I)CCO3)nc2c(N)ncnc21 (stereo not shown) [Compound 2A-12, 2-Methyl-propane-2-sulfinic acid {2-[6-amino-8-(5-iodo-2,3-dihydro-benzofuran-6-ylsulfanyl)-purin-9-yl]-ethyl}-amide] | 68 | high level of binding affinity |  | 
9 | CC(C)(C)S(=O)(=O)NCCn1c(Sc2cc3c(cc2I)CCC3)nc2c(N)ncnc21 [Compound 3A-11, 2-Methyl-propane-2-sulfonic acid {2-[6-amino-8-(6-iodo-indan-5-ylsulfanyl)-purin-9-yl]-ethyl}-amide] | 68 | high level of binding affinity |  | 
10 | C#Cc1cc2c(cc1Sc1nc3c(N)ncnc3n1CCCNS(C)(=O)=O)CCC2 [Compound 3A-43, N-{3-[6-Amino-8-(6-ethynyl-indan-5-ylsulfanyl)-purin-9-yl]-propyl}-methanesulfonamide] | 37.4 | high level of binding affinity |  | 
11 | CC(C)NCCCn1c(Sc2cc3c(cc2I)OCO3)nc2c(N)ncnc21 [PU-H71, reference compound] |  |  |  | 1000

More lines, main results first:

Row | IC50 (Hsp90) [nM] | Structure (SMILES) | Hsp90 binding affinity (in words, referring to Table 12) (Hsp90 (SKBr3 lysate)) | IC50 (hERG; [1]) [nM] | IC50 (hERG; concentration displacing 50% of Predictor hERG tracer red, read-out: hERG assay result) [nM]
12 | 20.5 | CC(C)NS(=O)(=O)CCCn1c(Sc2cc3c(cc2I)OCO3)nc2c(N)ncnc21 [Compound 1A-15, 3-[6-Amino-8-(6-iodo-benzo[1,3]dioxol-5-ylsulfanyl)-purin-9-yl]-propane-1-sulfonic acid isopropylamide] | high level of binding affinity | > 100000 | 
13 | 11.5 | CS(=O)(=O)NCCCn1c(Sc2cc3c(cc2I)OCO3)nc2c(N)ncnc21 [Compound 1A-24, N-{3-[6-Amino-8-(6-iodo-benzo[1,3]dioxol-5-ylsulfanyl)-purin-9-yl]-propyl}-methanesulfonamide] | high level of binding affinity |  | 
14 | 12 | CC(C)(C)[S+]([O-])NCCCn1c(Sc2cc3c(cc2I)OCO3)nc2c(N)ncnc21 (stereo not shown) [Compound 1A-26, 2-Methyl-propane-2-sulfinic acid {3-[6-amino-8-(6-iodo-benzo[1,3]dioxol-5-ylsulfanyl)-purin-9-yl]-propyl}-amide] |  | > 100000 | 
15 | 11 | CC(C)(C)C(=O)NCCCn1c(Sc2cc3c(cc2I)OCO3)nc2c(N)ncnc21 [Compound 1A-43, N-(3-(6-amino-8-((6-iodobenzo[d][1,3]dioxol-5-yl)thio)-9H-purin-9-yl)propyl)pivalamide] |  | > 100000 | 
16 | 9.8 | Nc1ncnc2c1nc(Sc1cc3c(cc1I)OCO3)n2CCCNC(=O)C1CC1 [Compound 1A-45, N-(3-(6-amino-8-((6-iodobenzo[d][1,3]dioxol-5-yl)thio)-9H-purin-9-yl)propyl)cyclopropane carboxamide] |  | > 100000 | 
17 | 11 | CN(C)c1cc2c(cc1Sc1nc3c(N)ncnc3n1CCCNC(=O)C(C)(C)C)OCO2 [Compound 1G-43, N-{3-[6-Amino-8-(6-dimethylamino-benzo[1,3]dioxol-5-ylsulfanyl)-purin-9-yl]-propyl}-2,2-dimethyl-propionamide] | high level of binding affinity | > 100000 | 
18 | 15 | CN(C)c1cc2c(cc1Sc1nc3c(N)ncnc3n1CCCNC(=O)C1CC1)OCO2 [Compound 1G-45, Cyclopropanecarboxylic acid {3-[6-amino-8-(6-dimethylamino-benzo[1,3]dioxol-5-ylsulfanyl)-purin-9-yl]-propyl}-amide] | high level of binding affinity | 76000 | 
19 | 17 | CC(C)(C)[S+]([O-])NCCCn1c(Sc2cc3c(cc2I)CCO3)nc2c(N)ncnc21 (stereo not shown) [Compound 2A-26, 2-Methyl-propane-2-sulfinic acid {3-[6-amino-8-(5-iodo-2,3-dihydro-benzofuran-6-ylsulfanyl)-purin-9-yl]-propyl}-amide] | high level of binding affinity |  | 
20 | 11.8 | Nc1ncnc2c1nc(Sc1cc3c(cc1I)CCO3)n2CCCNC(=O)C1CC1 [Compound 2A-45, Cyclopropanecarboxylic acid {3-[6-amino-8-(5-iodo-2,3-dihydro-benzufuran-6-ylsulfanyl)-purin-9-yl]-propyl}-amide] | high level of binding affinity |  | 
21 | 3.5 | CS(=O)(=O)NCCn1c(Sc2cc3c(cc2I)CCC3)nc2c(N)ncnc21 [Compound 3A-10, N-{2-[6-Amino-8-(6-iodo-indan-5-ylsulfanyl)-purin-9-yl]-ethyl}-methanesulfonamide] | high level of binding affinity |  | 
22 | 8.1 | CS(=O)(=O)NCCCn1c(Sc2cc3c(cc2I)CCC3)nc2c(N)ncnc21 [Compound 3A-24, N-{3-[6-Amino-8-(6-iodo-indan-5-ylsulfanyl)-purin-9-yl]-propyl}-methanesulfonamide] | high level of binding affinity |  | 
23 | 20.1 | CC(C)(C)[S+]([O-])NCCCn1c(Sc2cc3c(cc2I)CCC3)nc2c(N)ncnc21 (stereo not shown) [Compound 3A-26, 2-Methyl-propane-2-sulfinic acid {3-[6-amino-8-(6-iodo-indan-5-ylsulfanyl)-purin-9-yl]-propyl}-amide] | high level of binding affinity |  | 
